Source: patent US10758609B2, “Cross-reactive T-cell epitopes of HIV, SIV, and FIV for vaccines in humans and cats” (priority 2015, dated 2020)

How the values were obtained:
PBMC from HIV^+ subjects = assay: IFNγ ELISpot of PBMC from HIV+ human subjects; format: cell-based
Protocol: (§1) The overlapping peptide pools of FIV and HIV-1 structural and enzyme proteins were used to stimulate the […] (PBMC) and the T cells from HIV^+ subjects as previously described for epitope mapping of HIV-1 and FIV p24 and reverse transcriptase (RT) (Sanou et al., 2013; Roff et al., 2015). The individual peptides in those peptide pools with positive responses to either interferon-γ (IFNγ) production and/or T-cell proliferation were determined with IFNγ ELISpot analysis and CFSE-based CD3^+CD4^+ and CD3^+CD8^+ T-cell proliferation analyses followed by the FACS-based intracellular staining (ICS) for cytolysin (perforin) and cytotoxin (granzyme A [GrzA] and GrzB) (Sanou et al., 2013; Roff et al., 2015). Besides viral p24 and RT proteins, the identical approach was used to identify anti-HIV/FIV T-cell epitopes on viral matrix (MA), nucleocapsid (NC), protease (PR), RNAase, integrase (IN), surface envelope (SU Env), and transmembrane envelope (TM Env) (FIG. 12).
(§2) Since our goal is to develop HIV vaccine for human use, the HIV peptides (Table 10) counterpart of the cross-reactive FIV peptides shown in Table 9 were tested with PBMC and T cells from HIV^+ subjects. The immune functions analyzed were human IFNγ production by ELISpot, cytolysin/cytotoxin production by ICS, and CFSE-based proliferation of CD3^+CD4^+ and CD3^+CD8^+ T cells from HIV^+ subjects (Table 10, the first set of results). In addition, the Los Alamos National Laboratories (LANL) database was used to identify the HLA allele(s) of the HIV epitope sequence with CTL activity that can exist within the sequence of the conserved counterpart HIV peptide (Table 9, LANL CTL). The bold HLA class-I supertypes and the bold 2-digit alleles are those on the “Optimal CD8^+ CTL Epitopes” list and those without bold are alleles for potential CTL epitope. […] The HLA class II such as HLA-DRB1 has yet to be fully classified into supertypes, and therefore the 4-digit resolution nomenclatures for the HLA-DRB1 alleles are shown.
In addition, these peptides were also analyzed for IFNγ production, CD4^+ and CD8^+ T-cell proliferation, and cytolysin (perforin) and cytotoxin (granzyme A (GrzA) and GrzB)) mRNA production of PBMC or T cells from 8-30 HIV^+ human subjects. The frequency of responders is based on the individual responses of the vaccinated cats or HIV^+ human subjects after subtraction of the average of the responses of PBMC or T cells from 6-8 non-vaccinated cats or 8-20 HIV-negative human subjects.
(§3) The threshold for positive IFNγ and IL2 ELISpot responses is ≥50 spot-forming units (SFU) per 10^6 PBMC. The threshold for CFSE-based CD4^+ and CD8^+ T-cell proliferation is ≥2% CD4^+ T-cell CFSE^low or CD8^+ T-cell CFSE^low. The threshold of FACS-based intracellular cytokine staining (ICS) is ≥0.2%. […] The nine FIV peptides in black were used in the current MAP vaccine trial, whereas the 13 peptides in blue were not used. […] The MAPs and their corresponding peptide(s) were also tested for their ability to enhance or suppress in vitro FIV infection of feline PBMC (E/S of peptides and E/S of MAP).
(§4) The counterpart HIV-1 peptides of the FIV peptides were also tested for immunogenicity using PBMC and T cells from HIV^+ human subjects. […] The HRT7-1 and HRT7-2 were also tested with cells from HIV^+ subjects on ART. The threshold for positive IFNγ ELISpot response is ≥75 spot-forming units (SFU) per 10^6 PBMC. The threshold for CFSE-based CD4^+ (CD4^+ T) and CD8^+ (CD8^+ T) T-cell proliferation is ≥2% CD4^+ T-cell CFSE^low or CD8^+ T-cell CFSE^low. The threshold of intracellular cytokine staining (ICS) of FACS-based cytolysin (perforin) and cytotoxins (granzymes A and B) in CD4^+ T cells (CyCD4) and CD8^+ T cells (CyCD8) is ≥0.2%.

[1] = tested on: CD3^+CD4^+ T cells from HIV^+ subjects; assay: CFSE-based CD3+CD4+ T-cell proliferation, HIV+ human subjects; conditions: for CD4, frequency of responders: FIV epitope peptide; for CDC4^+ T (T-cell proliferation), frequency of responders: FIV peptides
Protocol: as §1, §2, §3
as §4, with “≥0.2%. […] The nine HIV-1 peptides in black are the counterpart FIV peptides used in the current MAP vaccine trial, whereas the 13 peptides in blue were not.” for “≥0.2%.”

FIVFC1 = assay: FIV enhancement and suppression (E/S) analysis of in vitro FIV infection of feline PBMC; format: cell-based, feline immunodeficiency virus; conditions: FIV-vaccinated cats; for E/S pMAP: viral enhancement or suppression: Palmitoyled Pam-MAP (pMAP) of the peptide, ** = MAP(Fp4-3/Fp14-1); for E/S: viral enhancement or suppression: peptide
[2] = ELISA and FIV immunoblot for antibodies to vaccine peptides/MAPs; format: in vivo, cat; conditions: IWV/MAP-vaccinated cats, throughout the vaccination (pilot study)
Protocol: To avoid detection of vaccine antibodies to p24 and RT, post-challenge sera were evaluated for infection-induced FIV antibodies by ELISA using 200 ng/well of transmembrane peptide (TM, aa 694-705: […] (SEQ ID NO:68)) as previously described. The positive threshold for anti-TM antibodies was set at 0.2 O.D. The post-vaccination sera immediately before challenge were evaluated for NAb titer to FIVPet and FIVFC1 by NAb assay as previously described. The post-vaccination/pre-challenge sera were tested for antibodies to vaccine peptides by ELISA using each peptide as substrate and by FIV immunoblot with mini-blot modification as previously described. All ELISA thresholds were set at twice the average of the individual serum from 15-20 SPF cats.

AGLRQSLEQYQVVKQ [FSU4]
IFNγ, frequency of responders (PBMC from HIV^+ subjects; FIV epitope peptide): — (0%-1.4% (—))
IFNγ, frequency of responders (PBMC from HIV^+ subjects; FIV peptides): — (0%-1.4%(—))
CD4, frequency of responders [1]: — (0%-1.4% (—))
CDC4^+ T (T-cell proliferation), frequency of responders [1]: — (0%-1.4%(—))

LLLILCLPTLVDCIRN [FTM8(20)]
IFNγ, frequency of responders (PBMC from HIV^+ subjects; FIV epitope peptide): — (0%-1.4% (—))
IFNγ, frequency of responders (PBMC from HIV^+ subjects; FIV peptides): — (0%-1.4%(—))
CD4, frequency of responders [1]: ++ (26%-40% (++))
CDC4^+ T (T-cell proliferation), frequency of responders [1]: ++ (25.1%-40% (++))

KKKSGKWRMLIDFRV [FRT3-3]
IFNγ, frequency of responders (PBMC from HIV^+ subjects; FIV epitope peptide): ++++ (>54% (++++))
IFNγ, frequency of responders (PBMC from HIV^+ subjects; FIV peptides): ++++ (>54% (++++))
CD4, frequency of responders [1]: — (0%-1.4% (—))
CDC4^+ T (T-cell proliferation), frequency of responders [1]: — (0%-1.4%(—))
E/S pMAP: viral enhancement or suppression (FIVFC1): ↓X
E/S tMAP: viral enhancement or suppression (FIVFC1; Tat-MAP (tMAP) of the peptide): ↓+
E/S: viral enhancement or suppression (FIVFC1): ↑
Peptide-specific serum antibodies (ELISA) [2]: No specific antibodies

PTDMATLIMAAPGCA [Fp4-3]
IFNγ, frequency of responders (PBMC from HIV^+ subjects; FIV epitope peptide): — (0%-1.4% (—))
IFNγ, frequency of responders (PBMC from HIV^+ subjects; FIV peptides): — (0%-1.4%(—))
CD4, frequency of responders [1]: — (0%-1.4% (—))
CDC4^+ T (T-cell proliferation), frequency of responders [1]: — (0%-1.4%(—))
E/S pMAP: viral enhancement or suppression (FIVFC1): ↑**
E/S: viral enhancement or suppression (FIVFC1): ↑
Peptide-specific serum antibodies (ELISA) [2]: No specific antibodies

KFLYTAFAMQELR [FTM4-3]
IFNγ, frequency of responders (PBMC from HIV^+ subjects; FIV epitope peptide): — (0%-1.4% (—))
IFNγ, frequency of responders (PBMC from HIV^+ subjects; FIV peptides): — (0%-1.4%(—))
CD4, frequency of responders [1]: — (0%-1.4% (—))
CDC4^+ T (T-cell proliferation), frequency of responders [1]: — (0%-1.4%(—))

WRMLIDFRVLNKL [FRT3-4]
IFNγ, frequency of responders (PBMC from HIV^+ subjects; FIV epitope peptide): — (0%-1.4% (—))
IFNγ, frequency of responders (PBMC from HIV^+ subjects; FIV peptides): — (0%-1.4%(—))
CD4, frequency of responders [1]: — (0%-1.4% (—))
CDC4^+ T (T-cell proliferation), frequency of responders [1]: — (0%-1.4%(—))
E/S: viral enhancement or suppression (FIVFC1): ↓
Peptide-specific serum antibodies (ELISA) [2]: No specific antibodies
